Source: PMC12040169 (PLOS Biology, 2025)

Experiment: in vitro
Conditions: human, hela cells

| SMILES | viability at 28.5 h, 10 µM (% viability) | further results |
| --- | --- | --- |
| Cc1nc(NS(=O)(=O)c2ccc3ccccc3c2)sc1C(=O)O [CBK045548] | 105% | – |
| CCc1nn2c(=O)cc(CNc3ccccc3CN(C)C(C)=O)nc2s1 [CBK305604] | 114% | – |
| COC(=O)[C@H]1Cc2cc3c(cc2[C@H]1c1cc(OC)c(OC)c(OC)c1)OCO3 [CBK200105] | 54.8% | – |
| O=c1/c(=C/c2ccc3c(c2)OCO3)sc2nc3cc(Br)cnc3n12 [CBK262550] | 106% | – |
| Nc1nc(SCc2ccc(Cl)cc2)nc2sc3c(c12)CCN(Cc1ccccc1)C3 [CBK263724] | 88.1% | – |
| COCCN(Cc1cc2ccc(C)cc2nc1O)C(=O)c1cccs1 [CBK269324] | 100% | – |
| O=S1(=O)CCCN1c1ccc2[nH]ncc2c1 [CBK010263] | 102% | – |
| Cc1ccccc1OCc1nnc(SCc2c(Cl)cccc2[N+](=O)[O-])n1C [CBK265846] | 92.4% | – |
| CCCCN(CCCC)c1nccnc1Cl [CBK001576] | 94.7% | – |
| O=C(O)CN1C(=O)S/C(=C\c2ccc([N+](=O)[O-])o2)C1=O [CBK017858] | 97.7% | – |
| COc1ccc2[nH]c3c(c2c1)CCN(C(=O)CNCC(=O)O)C31CCN(CCOc2ccccc2)C1 (stereo not shown) [CBK082782T] | 114% | – |
| COC(=O)CSc1nnc(COc2ccc3c(c2)OCO3)n1-c1ccccc1 [CBK266139] | 107% | – |
| O=C1CC(Cl)Sc2sc3ccccc3c21 (stereo not shown) [CBK006551] | 86.6% | – |
| O=C(O)/C=C\c1cn(-c2ccccc2)nc1-c1cc2ccccc2o1 [CBK265257] | 92.7% | – |
| NS(=O)(=O)c1ccc(NC(=S)NC(=O)/C=C/c2ccco2)cc1 [CBK261066] | 93% | – |
| C=CCNS(=O)(=O)c1ccc(NC(=O)Cc2cccc3ccccc23)cc1 [CBK269379] | 109% | – |
| CCN(CCO)c1ccc(Nc2cc(-c3cc4ccccc4o3)ncn2)cc1 [CBK090999] | 94.8% | – |
| CN1CCN(C(=O)c2ccc(-c3cccc(C(F)(F)F)c3)nc2N2CCOCC2)CC1 [CBK106194] | 94% | – |
| Cc1ccc(-c2csc(=Nc3ccc(C(=O)O)cc3)n2Cc2ccccc2)cc1 [CBK296062] | 105% | – |
| C[C@@H](c1ccccc1)N1C(=O)[C@@H]2CN(C(=O)COCC(=O)O)CCN2C1=O [CBK289636] | 94.3% | – |
| Cc1c(Br)c(C(F)(F)F)nn1CC(=O)NCCN1CCOCC1 [CBK018700] | 107% | – |
| Cc1ncc(CN(CCN(C)C)Cc2cccs2)n1C [CBK282993] | 93.4% | – |

| SMILES | viability at 28.5 h, 10 µM (% viability) | further results |
| --- | --- | --- |
| CCc1c(C(=O)NCCn2ccnc2C)[nH]c2ccc(F)cc12 [CBK283314] | 92.9% | – |
| CC(C)CN(CC(=O)NC1(c2ccccc2)CCC1)C(=O)N(C)C [CBK062704] | 96.1% | – |
| O=C(O)CCC(=O)NC1CCN(Cc2ccccc2)CC1 [CBK287103] | 86.5% | – |
| O=C(O)COCC(=O)N1CCC2(CC1)NC(=O)Cc1c2ccc2ccccc12 [CBK047168] | 88.4% | – |
| COc1cc2c(cc1OC)CN(/C=N/c1sc3c(c1C#N)CC(C)(C)NC3(C)C)CC2 [CBK262918] | 105% | – |
| CSCCC(=O)Nc1ccc2c(ccn2Cc2ccccc2)c1 [CBK159732] | 69.4% | – |
| CNc1ncc(CN(C)C(=O)Cn2nc(C)c3ccccc3c2=O)cn1 [CBK307704] | 85.5% | – |
| O=C(N/N=C\c1ccc(OCc2ccccc2)cc1)C1COc2cc3ccccc3cc2O1 (stereo not shown) [CBK262764] | 95.6% | – |
| COc1ccc(-c2ccc3c(c2)COC2(CCCNC2)O3)c(OC)c1 (stereo not shown) [CBK105316] | 103% | – |
| COc1ccc(S(=O)(=O)N(C)CC(=O)NCc2cccnc2)cc1Cl [CBK268089] | 108% | – |
| O=C(Nc1cccc(-c2ccc3nncn3n2)c1)c1ccc(F)cc1 [CBK287682] | 87.1% | – |
| O=S(=O)(NC(c1ccccc1)c1ccccc1)c1ccc(Cl)cc1 [CBK261759] | 104% | – |
| CN1CCN(C)C(COc2cccc(C(F)(F)F)n2)C1 (stereo not shown) [CBK113292] | 106% | – |
| c1ccc2c(c1)CCCN2Cc1nc2ccccc2[nH]1 [CBK138329] | 107% | – |
| CCOC(=O)CN(Cc1ccccc1)Cc1ccc(OC)cc1 [CBK126460] | 103% | – |
| Cc1cn(CC(=O)N2CCC3(CCN(Cc4ccccc4)C3)C2)c(=O)[nH]c1=O (stereo not shown) [CBK136840] | 91.6% | – |
| CN(Cc1ccccc1)c1nc2ccccn2c(=O)c1/C=C1/SC(=S)N(CCc2ccccc2)C1=O [CBK263839] | 112% | – |
| CNC(=O)Nc1ccc(C(C)(C)C)cc1Br [CBK086434] | 111% | – |
| NC(=O)CN1CC2(CCN(Cc3ccc(Cl)c(Cl)c3)CC2)c2ccccc21 [CBK126775] | 109% | – |
| O=C(C1CC1)N1CCCC1c1nc(-c2ccc(F)cc2)n[nH]1 (stereo not shown) [CBK283934] | 102% | – |
| Cn1c(COc2cccc3cccnc23)nnc1SCC(=O)O [CBK300505] | 89.4% | – |
| Cc1cc(Cc2cccc(Cl)c2)cc(C2CCCN(C(=O)CN3CCCC3=O)C2)n1 (stereo not shown) [CBK286103] | 94% | – |

| SMILES | viability at 28.5 h, 10 µM (% viability) | further results |
| --- | --- | --- |
| CC(C)(C)C(=O)N1CCC(n2nc(-c3cccs3)ccc2=O)CC1 [CBK284182] | 92.9% | – |
| CS(=O)(=O)c1ccc(-c2ccc(C(=O)N3CCN(C(=O)OCc4ccccc4)CC3)cn2)cc1 [CBK160189] | 107% | – |
| CCN(Cc1ccncc1)C(=O)NCc1c(Cl)cccc1Cl [CBK155144] | 107% | – |
| Cc1cc(COc2nc3ccccc3nc2NCCC2=CCCCC2)no1 [CBK173982] | 115% | – |
| CC(=O)NCc1cccc(-c2cc(OCC3COc4ccccc4O3)cnc2C)c1 (stereo not shown) [CBK161723A] | 112% | – |
| Cn1cc(C2CCCCCN2Cc2cc(Cl)ccc2O)cn1 (stereo not shown) [CBK282941] | 100% | – |
| FC(F)(F)c1ccnc(Sc2cccc(Cl)c2)n1 [CBK115247] | 98.5% | – |
| O=C(c1ccc(F)cc1)N1C[C@@H](c2ccsc2)[C@@H]2CN(Cc3ccccc3)CC[C@@H]21 [CBK285635] | 94.7% | – |
| O=C(NC1CCCCC1)N1CC[C@H](c2nc3ccccc3o2)C1 [CBK289372] | 88.4% | – |
| Nc1nc2c(s1)c(=O)[nH]c(=O)n2-c1ccc(Cl)cc1 [CBK269891] | 78.1% | – |
| O=C(CNS(=O)(=O)Cc1ccccc1[N+](=O)[O-])Nc1ccc(F)cc1 [CBK042228] | 90% | – |
| COc1ccc(-c2cnc3[nH]c(=O)n(CCN4CCOCC4)c3n2)cc1 [CBK064782] | 103% | – |
| O=C(NC(c1ccc(F)cc1)c1ccccn1)C1CCN(C(=O)c2ccno2)CC1 (stereo not shown) [CBK059705] | 99.9% | – |
| O=C(c1ccncc1)C12CN3CN(CN(C3)C1)C2 [CBK261451] | 97.6% | – |
| CC(C)C1C(=O)Nc2ccccc2N1C(=O)NCCC(=O)O (stereo not shown) [CBK286659] | 87.4% | – |
| Cc1cn2c3c(=O)n(CCN4CCCCC4)c(=O)n(C)c3nc2n1CC1CCCO1 (stereo not shown) [CBK269820] | 91.9% | – |
| COCC(=O)N1CC[C@H](c2nnc(-c3ccc(C)cc3)o2)C1 [CBK289410] | 114% | – |
| COc1ccc(C(NC(=O)Cn2cccnc2=O)C2CC(O)C2)cn1 (stereo not shown) [CBK307527] | 83.4% | – |
| CC(=O)c1c(C(=O)O)[nH]c(C(=O)O)c1C [CBK263934] | 87.4% | – |
| O=C(c1ccccc1)c1ccc(S(=O)(=O)N2CCCN(Cc3cc(F)c(F)c(F)c3)CC2)cc1 [CBK062777] | 91.2% | – |
| O=C(NCCNc1ccc([N+](=O)[O-])cc1Cl)c1ccc(F)cc1 [CBK262344] | 86.6% | – |
| CC1(C)[C@H](Cc2cc(CO)on2)C[C@@H]1NC(=O)C1CCCCC1 [CBK289235] | 93.1% | – |

| SMILES | viability at 28.5 h, 10 µM (% viability) | further results |
| --- | --- | --- |
| COc1ccc(CNC(N)=O)cc1 [CBK013588] | 104% | – |
| CO[C@@H](C(=O)Nc1cnc(-c2cccc(C)c2)c(-c2ccco2)n1)c1ccccc1 [CBK037613] | 105% | – |
| CC(C)NCC(O)c1c2c(cc3c1CCC3)CCC2 (stereo not shown) [CBK012972F] | 108% | – |
| O=C(O)CCc1ccc(-c2cccs2)n1-c1ccc(C(=O)O)cc1 [CBK266016] | 90.9% | – |
| CC(=O)c1ccc(CN2CCN(S(=O)(=O)c3ccc(C(F)(F)F)cc3Cl)CC2)cc1 [CBK063072] | 96% | – |
| CCn1cc(C(=O)N2CCc3sccc3C2)c(=O)c2ccc(C)nc21 [CBK305006] | 94.3% | – |
| Nc1ncccc1OCCOc1cccnc1N [CBK022067] | 89.3% | – |
| Cc1ccc(CNc2oc(COc3ccc(Br)cc3)nc2C#N)cc1 [CBK074467] | 99.5% | – |
| COC(=O)c1cc(-c2c[nH]c3ccccc23)[nH]n1 [CBK241010] | 92.5% | – |
| Cn1c(=O)[nH]c(=O)c2c1nc(N1CCCCC1)n2CCCSc1nc2ccccc2s1 [CBK269550] | 103% | – |
| Cc1c(C(=O)NCc2ccccn2)nnn1-c1cccc(C(F)(F)F)c1 [CBK107395] | 92.9% | – |
| O=C1N/C(=C/c2cccs2)C(=O)N1Cc1ccccc1F [CBK265601] | 109% | – |
| COc1ccc(-c2ccc(OC)cc2C(=O)Nc2ccc(Cn3cncn3)cc2)cc1 [CBK285588] | 109% | – |
| c1coc(-c2nnc(Nc3nc4cc5c(cc4s3)OCO5)o2)c1 [CBK287492] | 89.8% | – |
| C=CCC1(CC=C)CCN1C(=O)Cc1c(C)nc(SC)[nH]c1=O [CBK282661] | 86.9% | – |
| c1cc(-c2ccc3c(c2)COC2(CCNCC2)O3)ccn1 [CBK060867] | – | viability at 28.5 h, 10 µM (% viability, bulk resorufin, single well): 99% |
| CC(C)Nc1cc(OCc2cccnc2)ncn1 [CBK115883] | 91.3% | – |
| CN(C)C(=O)Oc1cc(CN2CCCC2)c2ccn(S(=O)(=O)c3ccccc3)c2c1 [CBK137151T] | – | viability at 28.5 h, 10 µM: 101% |
| Cc1ccc(S(=O)(=O)NC(=O)N2CC3(C)CC2CC(C)(C)C3)cc1 (stereo not shown) [CBK023512] | 110% | – |
| O=C(NC(/C=C/c1ccccc1)c1cc([N+](=O)[O-])c2cccnc2c1O)C1CCCCC1 (stereo not shown) [CBK265333] | 93% | – |
| O=[N+]([O-])c1ccc(N(CCO)CCO)c2nonc12 [CBK261447] | 98.7% | – |
| Cc1nn(C)cc1CN(Cc1ccccc1F)CC1CCCO1 (stereo not shown) [CBK283014] | 106% | – |
